From ChEMBL document CHEMBL1201862, “PubChem BioAssay data set” (2004)
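Test compounds were applied to cells in 96-well plates for 48 hours at 5 doses. GI50 = concentration required for 50% inhibition of growth.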 Activity calls are given as the source filed them. Cut-off read from the data, not from the text of the source: active = GI50 up to about 1.1 µM and inactive = higher.

Tests used:
Test in all cases: NCI-60 cell line screen, 48 h
[1] = system: OVCAR-3
[2] = system: MOLT-4
[3] = system: CCRF-CEM
[4] = system: SF-268
[5] = system: NCI-H522
[6] = system: NCI-H460
[7] = system: M14
[8] = system: MCF7
[9] = system: HCC 2998
[10] = system: IGROV-1
[11] = system: SK-MEL-28
[12] = system: SN12C
[13] = system: TK-10
[14] = system: HCT-15
[15] = system: OVCAR-4
[16] = system: UO-31
[17] = system: SK-OV-3
[18] = system: NCI-H23
[19] = system: OVCAR-5
[20] = system: Hs-578T

Row | Structure (SMILES) | GI50 [1] | GI50 [2] | GI50 [3] | GI50 [4] | GI50 [5] | GI50 [6] | GI50 [7] | GI50 [8] | GI50 [9] | GI50 [10] | GI50 [11] | GI50 [12] | GI50 [13] | GI50 [14] [µM] | GI50 [15] | GI50 [16] | GI50 [17] | GI50 [18] | GI50 [19] | GI50 [20]
1 | CCn1c(CCCc2nc3c(=O)n(C)c(=O)n(C)c3[nH]2)nc2c1c(=O)n(C)c(=O)n2C | > 100 µM (inactive) | > 100 µM (inactive) | > 100 µM (inactive) | > 100 µM (inactive) | > 100 µM (inactive) | > 100 µM (inactive) | > 100 µM (inactive) | > 100 µM (inactive) | > 100 µM (inactive) | > 100 µM (inactive) | > 100 µM (inactive) | 46 µM (inactive) | > 100 µM (inactive) | > 100 | > 100 µM (inactive) | > 100 µM (inactive) | > 100 µM (inactive) | > 100 µM (inactive) | > 100 µM (inactive) | > 100 µM (inactive)
2 | COc1cc2cc(C(=O)N3C[C@H](CCl)c4c3cc(N)c3ccccc43)[nH]c2c(OC)c1OC | 0.555 µM (active) | 7.82 µM (inactive) | 0.051 µM (active) | 0.593 µM (active) | 0.001 µM (active) | 0.0239 µM (active) | 0.502 µM (active) | 0.0023 µM (active) | 1.93 µM (inactive) | 0.218 µM (active) | 0.0172 µM (active) | 0.592 µM (active) | 0.005 µM (active) | 0.005 | > 10 µM (inactive) | 0.005 µM (active) | 0.22 µM (active) | 0.005 µM (active) | 0.0906 µM (active) | 0.0127 µM (active)
3 | O=C(O)c1cc(/N=C/c2ccccc2O)cc(C(=O)O)c1 | 15.3 µM (inactive) | 86.9 µM (inactive) | > 100 µM (inactive) | > 100 µM (inactive) | > 100 µM (inactive) | > 100 µM (inactive) | > 100 µM (inactive) | > 100 µM (inactive) | > 100 µM (inactive) | > 100 µM (inactive) | > 100 µM (inactive) | > 100 µM (inactive) | > 100 µM (inactive) | > 100 | > 100 µM (inactive) | > 100 µM (inactive) | > 100 µM (inactive) | > 100 µM (inactive) | > 100 µM (inactive) | > 100 µM (inactive)
4 | c1ccc(COC[C@H]2C3OCC([C@H](OCc4ccccc4)[C@H]3OCc3ccccc3)N2Cc2ccccc2)cc1 (stereo not given in full) | 17.4 µM (inactive) | 6.44 µM (inactive) | 27.1 µM (inactive) | > 54.3 µM (inactive) | 13.9 µM (inactive) | > 56.4 µM (inactive) | > 54 µM (inactive) | > 56 µM (inactive) | > 53 µM (inactive) | 43 µM (inactive) | > 53.2 µM (inactive) | > 49 µM (inactive) | > 52.6 µM (inactive) | > 45.8 | 40 µM (inactive) | > 46.1 µM (inactive) | > 56.4 µM (inactive) | 40.3 µM (inactive) | > 52.4 µM (inactive) | > 49.1 µM (inactive)
5 | CCCCCNc1nonc1N | > 100 µM (inactive) | > 100 µM (inactive) | > 31.6 µM (inactive) | > 100 µM (inactive) | > 100 µM (inactive) | > 100 µM (inactive) | > 100 µM (inactive) | > 100 µM (inactive) | > 100 µM (inactive) | > 100 µM (inactive) | > 100 µM (inactive) | > 100 µM (inactive) | > 100 µM (inactive) | > 100 | > 88.3 µM (inactive) | > 100 µM (inactive) | > 100 µM (inactive) | > 100 µM (inactive) | > 100 µM (inactive) | > 72.8 µM (inactive)
6 | O=C(/C=C/c1ccccc1)CCN1CCCCC1 | 31.2 µM (inactive) | 24.1 µM (inactive) | 39.4 µM (inactive) | 42.5 µM (inactive) | 21.4 µM (inactive) | 40.7 µM (inactive) | 17.5 µM (inactive) | 27.4 µM (inactive) | > 100 µM (inactive) | 43.1 µM (inactive) | 24.2 µM (inactive) | 20.3 µM (inactive) | 51.3 µM (inactive) | 22.6 | 53 µM (inactive) | 34.9 µM (inactive) | 75 µM (inactive) | 24.8 µM (inactive) | > 100 µM (inactive) | 30.9 µM (inactive)
7 | NNC(=O)CCC(NS(=O)(=O)c1ccc(Cl)cc1)C(=O)NN (stereo not given) | > 100 µM (inactive) | > 100 µM (inactive) | > 100 µM (inactive) | > 100 µM (inactive) | > 100 µM (inactive) | > 100 µM (inactive) | > 100 µM (inactive) | > 100 µM (inactive) | > 100 µM (inactive) | > 100 µM (inactive) | > 100 µM (inactive) | > 100 µM (inactive) | > 100 µM (inactive) | > 100 | > 100 µM (inactive) | > 100 µM (inactive) | > 100 µM (inactive) | > 100 µM (inactive) | > 100 µM (inactive) | > 100 µM (inactive)
8 | O=c1c2cnccc2cc2c3ccccc3ccn12 | > 100 µM (inactive) | 5.21 µM (inactive) | 36.6 µM (inactive) | 86.1 µM (inactive) | 45.6 µM (inactive) | 5.78 µM (inactive) | > 100 µM (inactive) | 13.2 µM (inactive) | 53.7 µM (inactive) | 6.15 µM (inactive) | > 100 µM (inactive) | 61.2 µM (inactive) | 24.3 µM (inactive) | 23.1 | 50.4 µM (inactive) | 23.1 µM (inactive) | > 100 µM (inactive) | 51.6 µM (inactive) | > 100 µM (inactive) | 71.8 µM (inactive)
9 | Cn1cccc1-c1ccc(-c2ccc(CO)[se]2)[se]1 | 4.02 µM (inactive) | 8.79 µM (inactive) | 11.5 µM (inactive) | 44.7 µM (inactive) | 10.2 µM (inactive) | 10.9 µM (inactive) | 16.1 µM (inactive) | 0.906 µM (active) | 2.02 µM (inactive) | 0.582 µM (active) | 16.6 µM (inactive) | 68.9 µM (inactive) | 28.1 µM (inactive) | 12.6 | 2.61 µM (inactive) | 35.7 µM (inactive) | 22.1 µM (inactive) | 25.9 µM (inactive) | 53.5 µM (inactive) | 22.7 µM (inactive)
10 | COc1cc(/C=C2/CCCc3ccccc3C2=O)cc(OC)c1OC | 19.2 µM (inactive) | 3.46 µM (inactive) | 4.19 µM (inactive) | 14.7 µM (inactive) | 11.3 µM (inactive) | 20.8 µM (inactive) | 18.7 µM (inactive) | 9.79 µM (inactive) | 22.5 µM (inactive) | 28.9 µM (inactive) | 22 µM (inactive) | 15.1 µM (inactive) | 22.5 µM (inactive) | 12.6 | 17.2 µM (inactive) | 14.6 µM (inactive) | 25.5 µM (inactive) | 18.4 µM (inactive) | 30.6 µM (inactive) | 18.2 µM (inactive)
11 | CC(C)(C)OC(=O)NNCC(O)COc1ccccc1 (stereo not given) | > 100 µM (inactive) | > 100 µM (inactive) | > 100 µM (inactive) | > 100 µM (inactive) | > 100 µM (inactive) | > 100 µM (inactive) | > 100 µM (inactive) | > 100 µM (inactive) | > 100 µM (inactive) | > 100 µM (inactive) | > 100 µM (inactive) | > 100 µM (inactive) | > 100 µM (inactive) | > 100 | > 100 µM (inactive) | > 100 µM (inactive) | > 100 µM (inactive) | > 100 µM (inactive) | > 100 µM (inactive) | > 100 µM (inactive)
12 | NNc1ncnc2cccc(Cl)c12 | > 100 µM (inactive) | > 100 µM (inactive) | > 100 µM (inactive) | > 100 µM (inactive) | > 100 µM (inactive) | > 100 µM (inactive) | > 100 µM (inactive) | > 100 µM (inactive) | > 100 µM (inactive) | > 100 µM (inactive) | > 100 µM (inactive) | > 100 µM (inactive) | > 100 µM (inactive) | > 100 | > 100 µM (inactive) | > 100 µM (inactive) | > 100 µM (inactive) | > 100 µM (inactive) | > 100 µM (inactive) | > 100 µM (inactive)
13 | N#CC(CCN1CCC(Nc2ccccc2)(c2nnnn2C2CCCCC2)CC1)(c1ccccc1)c1ccccc1 | > 100 µM (inactive) | > 100 µM (inactive) | > 100 µM (inactive) | > 100 µM (inactive) | > 100 µM (inactive) | > 100 µM (inactive) | > 100 µM (inactive) | 58.2 µM (inactive) | > 100 µM (inactive) | > 100 µM (inactive) | > 100 µM (inactive) | > 100 µM (inactive) | > 100 µM (inactive) | > 100 | > 100 µM (inactive) | > 100 µM (inactive) | > 100 µM (inactive) | > 100 µM (inactive) | > 100 µM (inactive) | > 100 µM (inactive)
14 | CC[C@@]1(O)C(=O)OCc2c1cc1n(c2=O)Cc2c-1nc1ccc(O)cc1c2[Si](C)(C)C(C)(C)C [AR-67] | 0.0261 µM (active) | < 0.01 µM (active) | < 0.01 µM (active) | < 0.01 µM (active) | < 0.01 µM (active) | < 0.01 µM (active) | < 0.01 µM (active) | < 0.01 µM (active) | 0.0205 µM (active) | < 0.019 µM (active) | 0.0317 µM (active) | < 0.01 µM (active) | 0.443 µM (active) | 0.122 | 0.0282 µM (active) | < 0.01 µM (active) | 0.557 µM (active) | < 0.01 µM (active) | 0.139 µM (active) | 0.339 µM (active)
